We go through 4 compounds from patent US12624050B2, “Three fused ring derivative-containing salt or crystal form and pharmaceutical composition thereof” (Shanghai Hansoh Biomedical Co., Ltd., priority 2019, dated 2026).

The test system of one data set is SD rats. Briefly: Toxicity test of a 7-day repeatedly intragastric administration in SD rats. The format is in vivo. The settings on record: SD rats, intragastric once/day, 7 days. An excerpt: • Test compound 1: GDC-0077 • Test compound 2: the compounds of Example 22 and Example 62 3.2.2 Vehicle • Name: 20% aqueousSBE-β-CD (Captisol) solution 3.2.3 Animal Information • Species & strains: Sprague-Dawley (SD) rat • Animal grade: SPF grade • Number and sex of animals: 160 rats, half male and half female. 3.2.4 Instruments • The ADVIA®2120 series Hematology System with Autoslide was used for blood cell counting; • The SYSMEX CA-500 Coagulation Analyzer was used for the detection of coagulation function indicators; • The TBA-120FR Automated Biochemical Analyzer was used for the detection of blood biochemical indicators; • The Easylyte Electrolyte Analyzer was used for the detection of electrolytes; • The liquid mass spectrometry detector model API4000; • The electron spray ionization (ESI) positive ion mode and column type Agilent ZORBAX XDB-C18 (3.5 μm, 2.1×50 mm) were used for bioanalytical detection of plasma samples. 3.3 Experimental Method • 1) In the experiment, 160 rats (80 rats/sex) were divided into 20 groups according to their sex and body weight, wherein 100 rats were used for toxicology study (groups 1 to 10, 5 rats/sex/group) and 60 rats were used for toxicokinetic study (groups 11 to 20, 3 rats/sex/group); • 2) As the vehicle control group, the animals in groups 1 and 11 were intragastrically administered 20% aqueous SBE-β-CD (Captisol) solution; • 3) The animals in groups 2 and 12, groups 3 and 13, and groups 4 and 14 were intragastrically administered 10, 30 and 60 mg/kg of GDC-0077, respectively; • 4) The animals in groups 5 and 15, groups 6 and 16, and groups 7 and 17 were intragastrically administered 10, 30 and 60 mg/kg of the compound of Example 22, respectively; • 5) The animals in groups 8 and 18, groups 9 and 19, groups 10 and 20 were intragastrically administered 10, 30 and 60 mg/kg of the compound of Example 62, respectively; • 5) The animals were administered once a day for 7 consecutive days (the animals in groups 7, 17, 10 and 20 were administered for 6 consecutive days). • 6) The administration volume was 10 mL/kg. • 7) During the experiment, items such as clinical observation, body weight, food intake, clinicopathological indicators (blood cell count, coagulation function, blood biochemistry), toxicokinetics and the like were studied. • 8) All animals were euthanized on Day 8 (the animals in groups 7, 10, 17 and 20 were euthanized after administration on Day 6). • 9) During the experiment, gross anatomical observation was performed on the animals in groups 1 to 10, animals in groups 17 and 20, and dead animals (including animals in toxicological study). Histopathological examination was performed on abnormal tissues, gastrointestinal tissues (such as colon, cecum) and immune tissues (such as thymus). […]

A short description of data set [1]: PK studies in animals of salt crystal forms, intragastric 30 mg/kg. The format is in vivo. The settings on record: 0.5% HPMC K4M suspension; for exposure in rats (in words): 30 mg/kg; for AUC(0-inf) / AUC(0-t) / Cmax / Tmax / half-life / MRT inf: rat, in vivo, po, rats, 30 mg/kg (as free compound); for MRT inf: read-out: MRT0-∞. On the procedure:
7.2.1 Crystal form A of mesylate salt, crystal form D of sulfate salt and crystal form A of ethanesulfonate salt of (S)-2-((2-((R)-4-(difluoromethyl)-2-oxothiazolidin-3-yl)-5,6-dihydrobenzo[f]imidazo[1,2-d][1,4]oxazepin-9-yl)amino)propionamide were evenly suspended in an aqueous solution containing 0.5% HPMC (hydroxypropyl methylcellulose) K4M, and then intragastrically administered to rats in duplicate at a dose of 30 mg/kg. The amount of the compound was all converted into the amount of the same compound (S)-2-((2-((R)-4-(difluoromethyl)-2-oxothiazolidin-3-yl)-5,6-dihydrobenzo[f]imidazo[1,2-d][1,4]oxazepin-9-yl)amino)propionamide.

Data set [2] can be described thus: Polymorphic screening experiment. The conditions noted are these: slurrying, changing solvent and crystallization mode. The format is physicochemical. On the procedure: Organic solvents and water with a certain solubility was chosen to suspend the compound in the solvent system, and the mixture was stirred and slurried at room temperature for 1 week, and then centrifuged. The supernatant was discarded, and the solid was dried in vacuum (−0.1 Mpa) at 40° C. overnight. Then the XRPD of the solid was measured and compared with the XRPD of salt of the compound.

The nature of data set [3]: Solubility experiment in different media, thermodynamic solubility at 37°C. The conditions noted are these: for solubility after salt formation compared with the free compound: 37°C; for solubility at 24 h: thermodynamic from solid, thermodynamic solubility. Type of data set: physicochemical. On the procedure: About 2 mg of crystal form A of ethanesulfonate salt of (S)-2-((2-((R)-4-(difluoromethyl)-2-oxothiazolidin-3-yl)-5,6-dihydrobenzo[f]imidazo[1,2-d][1,4]oxazepin-9-yl)amino)propionamide was suspended in different media for 24 hours.

Data set [4] in a line: Hygroscopicity experiment. The conditions noted are these: for crystal form (XRPD pattern) after humidification and dehumidification: 1 cycle under 0 to 95% relative humidity; for hygroscopic weight gain / hygroscopicity (in words): RH 80%. The format is physicochemical. On the procedure:
Crystal form A of mesylate salt, crystal form D of sulfate salt and crystal form A of ethanesulfonate salt of (S)-2-((2-((R)-4-(difluoromethyl)-2-oxothiazolidin-3-yl)-5,6-dihydrobenzo[f]imidazo[1,2-d][1,4]oxazepin-9-yl)amino)propionamide were placed in saturated water vapor with different relative humidity, so that the compound and water vapor reached a dynamic equilibrium, and the percentage of hygroscopic weight gain of the compound after the equilibrium was calculated.

The nature of data set [5]: Stability experiment of the solids (60°C, RH 95%, light), HPLC. Type of data set: physicochemical. The conditions noted are these: light condition (5000 lx) for 10 days. On the procedure: About 2 mg of crystal form A of mesylate salt, crystal form C of sulfate salt and crystal form A of ethanesulfonate salt of (S)-2-((2-((R)-4-(difluoromethyl)-2-oxothiazolidin-3-yl)-5,6-dihydrobenzo[f]imidazo[1,2-d][1,4]oxazepin-9-yl)amino)propionamide was placed in a sealed oven at 60° C., in an unsealed container at room temperature under RH 95% (saturated aqueous KNO3 solution) and in a light box (5000 lx±500 lx) and observed for 5 days and 10 days. The content of salt was determined by HPLC using the external standard method. Changes of related substance of salt in substances related to the salts were calculated by normalization of chromatography peak area.

`C[C@H](Nc1ccc2c(c1)OCCn1cc(N3C(=O)OC[C@H]3C(F)F)nc1-2)C(N)=O` [GDC-0077, reference compound] showed a lethal dose in the data set with SD rats of 60 mg/kg.

For orientation: AUC(0-inf) means total exposure, with the tail of the curve extrapolated. As usually defined, the AUC(0-t) is the area under the concentration-time curve up to a stated or last time point. The term Cmax denotes the peak of the concentration-time curve. In general, Tmax refers to the time at which the peak concentration occurs. The half-life is the time in which the quantity being followed falls by half. For orientation: solubility means the concentration that dissolves in the medium under given conditions. A low value points to little dissolved substance. As for `CCS(=O)(=O)O.C[C@H](Nc1ccc2c(c1)OCCn1cc(N3C(=O)SC[C@H]3C(F)F)nc1-2)C(N)=O` [crystal form A of ethanesulfonate salt, (S)-2-((2-((R)-4-(difluoromethyl)-2-oxothiazolidin-3-yl)-5,6-dihydrobenzo[f]imidazo[1,2-d][1,4]oxazepin-9-yl)amino)propionamide], the “exposure in rats (in words)” value in data set [1] was “higher exposures”. For the same compound, in data set [1], the AUC(0-inf) was 10400 ng·h/mL. The AUC(0-t) in data set [1] is 10000 ng·h/mL. The Cmax in data set [1] stood at 1460 ng/mL. Besides, the Tmax in data set [1] came to 1 h. For the same compound, the half-life in data set [1] was 3.01 h. Also, the MRT inf in data set [1] came to 6.98 h. Besides, the “crystal form obtained in polymorphic screening” value in data set [2] is on record as “in crystal form A was obtained”. For the same compound, the “solubility after salt formation compared with the free compound” value in data set [3] (media of pH4 to 8 buffer) is “slightly lower solubility”; in data set [3] (other media, most obviously in water) it was “increased the solubility”. Moreover, the solubility at 24 h in data set [3] (medium of pH 1, simulated gastric fluid, medium pH 1, 37° C.) was 9370 µg/mL; in data set [3] (medium of pH 2, simulated gastric fluid, medium pH 2, 37° C.), 974 µg/mL; in data set [3] (medium of pH 3, aqueous buffer, medium pH 3, 37° C.), 268 µg/mL; in data set [3] (medium of pH 4, aqueous buffer, medium pH 4, 37° C.) it was 49 µg/mL; in data set [3] (medium of pH 5, aqueous buffer, medium pH 5, 37° C.) it was 20 µg/mL; in data set [3] (medium of pH 6, aqueous buffer, medium pH 6, 37° C.) it was 5 µg/mL. The solubility at 24 h in data set [3] (medium of pH 7, aqueous buffer, medium pH 7, 37° C.) was 12 µg/mL; in data set [3] (medium of pH 8, aqueous buffer, medium pH 8, 37° C.), 14 µg/mL; in data set [3] (medium Fa (fasted-state simulated intestinal fluid, FaSSIF), 37° C.), 44 µg/mL; in data set [3] (medium Fe (fed-state simulated intestinal fluid, FeSSIF), 37° C.), 163 µg/mL; in data set [3] (medium SGF (simulated gastric fluid), 37° C.) it was 1150 µg/mL; in data set [3] (medium water, 37° C.), 608 µg/mL. Further, the “crystal form (XRPD pattern) after humidification and dehumidification” value in data set [4] was “the crystal form did not change”. For the same compound, the hygroscopic weight gain in data set [4] amounted to 0.207%. For the same compound, the “hygroscopicity (in words)” value in data set [4] is reported as “slight hygroscopicity”. Moreover, the “increase of new impurity compared with 0 days” value (shortened to “increase of new impurity”) in data set [5] was 0.134%.

For the compound `C[C@H](Nc1ccc2c(c1)OCCn1cc(N3C(=O)SC[C@H]3C(F)F)nc1-2)C(N)=O.O=S(=O)(O)O` [crystal form C of sulfate salt, (S)-2-((2-((R)-4-(difluoromethyl)-2-oxothiazolidin-3-yl)-5,6-dihydrobenzo[f]imidazo[1,2-d][1,4]oxazepin-9-yl)amino)propionamide], the “increase of new impurity” value in data set [5] is 0.172%.

Consider `CS(=O)(=O)O.C[C@H](Nc1ccc2c(c1)OCCn1cc(N3C(=O)SC[C@H]3C(F)F)nc1-2)C(N)=O` [crystal form A of mesylate salt, (S)-2-((2-((R)-4-(difluoromethyl)-2-oxothiazolidin-3-yl)-5,6-dihydrobenzo[f]imidazo[1,2-d][1,4]oxazepin-9-yl)amino)propionamide], for which, in data set [1], the “exposure in rats (in words)” value was “higher exposures”, the AUC(0-inf) is 10200 ng·h/mL, the AUC(0-t) is 9840 ng·h/mL and the Cmax came out at 1180 ng/mL. Moreover, in data set [1], the Tmax is 1 h, the half-life is 3.54 h and the MRT inf turned out to be 6.52 h. In data set [4], the “crystal form (XRPD pattern) after humidification and dehumidification” value is on record as “the crystal form changed”; the hygroscopic weight gain is listed as 3.6%; the “hygroscopicity (in words)” value is given as “had hygroscopicity”. Besides, the “increase of new impurity” value in data set [5] is reported as 0.523%.
